From US20170209447A1, “Use of PNP Inhibitor to Treat Relapse of Malignancy after Hematopoietic Stem Cell Transplant” (Nitor Therapeutics, priority 2014, published 2017)

System: tetanus toxoid vaccine
Assay: PNPi as adjuvant in tetanus toxoid vaccine efficacy study (tetanus toxoid mouse model)
Format: in vivo, mice
Settings: compared to vehicle treated group
Procedure: This Example Evaluates PNPi as an Adjuvant in Tetanus Toxoid Vaccine Efficacy Study.
Method: Tetanus toxoid (TT) was used to vaccinate mice thrice, two weeks apart. Mice were treated by oral administration of compounds NTR001 and NTR002 and serum was collected at various time points for antibody titer and interferon-g analysis. Mice in Groups 2-6 (Table 2) are vaccinated subcutaneously with 0.1 ml tetanus toxoid vaccine on DAYS 0, 14 and 28. Mice in Group 1 (Table 1) received no vaccine. Antibody titers for DAYS 38 are determined by ELISA using tetanus toxoid coated microtiter plates and anti-mouse conjugate. Sera from DAY 30 are assayed by ELISA for interferon-g.

## O=c1[nH]cnc2c([C@@H]3N[C@H](CO)[C@@H](O)[C@H]3O)c[nH]c12 [NTR001, 7-[(2S,3S,4R,5R)-3,4-dihydroxy-5-(hydroxymethyl)-2-pyrrolidinyl]-1,5-dihyro-4-H-pyrrolo-[3,2-d]pyrimidin-4-one]
Day 30, ELISA, high dose group 60 mg/kg p.o., FIG. 4
  serum interferon-g levels: elevated
Day 38, ELISA, p.o. 30 mg/kg (6 days of treatment) and 60 mg/kg (3 days of treatment), FIG. 3
  serum tetanus toxoid antibody titers: significantly elevated
